Measured values reported in patent US11472778B2, “Hepatitis C virus NS3/4A protease inhibitors” (priority 2017, dated 2022).
Where two headings read alike, the source gives them in different places.

Tests used:
[1] = biological target: T1, GT1a D168A NS3/4A protease (UniProt P27958, D1194A, species not given); type: biochemical, Hepatitis C virus
T1 construct: rows headed: Ki (nM) D168A; Ki D168A; other: D168A variant
In short: (§1)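 Enzyme (GT1a wild type or D168A mutant, 2 nM) was preincubated with inhibitor dilutions for 1 h at room temperature in pH 7.5 Tris buffer with glycerol, DTT, LDAO and 4% DMSO.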

[2] = biological target: GT1a D168A NS3/4A protease; type: biochemical, Hepatitis C virus; conditions: fold change in Ki, D168A relative to WT
In short: as §1

[3] = biological target: T2, wild-type GT1a NS3/4A protease (UniProt P27958); type: biochemical, Hepatitis C virus
T2 construct: Ki WT; other: wild-type HCV NS3/4A protease
In short: as §1

[4] = tested on: wild-type HCV replicon in Huh7 cells; assay: Cell-based drug susceptibility (replicon) assay, wild-type; conditions: Hepatitis C virus, Huh-7, Table 9; read-out: Replicon EC50 (nM) WT
In short: (§2)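 Chimeric Con1/H77-NS3 luciferase replicon, electroporated into Huh7 cells and grown with rising protease inhibitor levels; luciferase read 96 h later.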

[5] = tested on: HCV replicon A156T variant in Huh7 cells; assay: microbe, parasite or virus in culture; type: cell-based, Hepatitis C virus; conditions: for EC50: Hepatitis C virus, Huh-7, read-out: Replicon EC50 (nM) A156T, Table 9; for Replicon EC50 (Fold change) A156T: Table 9, relative to WT
In short: as §2

[6] = tested on: HCV replicon D168A variant in Huh7 cells; assay: microbe, parasite or virus in culture; type: cell-based, Hepatitis C virus; conditions: for EC50: Hepatitis C virus, Huh-7, read-out: Replicon EC50 (nM) D168A, Table 9; for Replicon EC50 (Fold change) D168A: Table 9, relative to WT
In short: as §2

[7] = tested on: HCV replicon R155K variant in Huh7 cells; assay: microbe, parasite or virus in culture; type: cell-based, Hepatitis C virus; conditions: for EC50: Hepatitis C virus, Huh-7, read-out: Replicon EC50 (nM) R155K, Table 9; for Replicon EC50 (Fold change) R155K: Table 9, relative to WT
In short: as §2

[8] = tested on: HCV replicon D168V variant in Huh7 cells; assay: microbe, parasite or virus in culture; type: cell-based, Hepatitis C virus; conditions: for Replicon EC50 (Fold change) D168V: relative to WT
In short: as §2

[9] = biological target: GT1a R155K NS3/4A protease (UniProt P27958, R1181K, species not given); type: biochemical, Hepatitis C virus
Protocol: (§3) For each assay, 2 nM of NS3/4A protease (GT1a, R155K and D168A) was pre-incubated at room temperature for 1 h with increasing concentration of inhibitors in assay buffer (50 mM Tris, 5% glycerol, 10 mM DTT, 0.6 mM LDAO, and 4% dimethyl sulfoxide, pH 7.5). Inhibition assays were performed in non-binding surface 96-well black half-area plates (Corning) in a reaction volume of 60 μL. […] Three independent data sets were collected for each inhibitor with each protease construct. […] Gibbs free energy of binding was calculated using the following equation: ΔG=RTlnKi

[10] = biological target: GT1a R155K NS3/4A protease; type: biochemical, Hepatitis C virus; conditions: fold change in Ki, R155K relative to WT
Protocol: as §3

[11] = read-out: Ki (nM) D168A, Table 8, linear inhibitors
[12] = read-out: Ki D168A, D168A variant
[13] = read-out: Ki (nM) WT, Table 8, linear inhibitors
[14] = read-out: Ki WT, wild-type HCV NS3/4A protease
[15] = Hepatitis C virus, Huh-7, read-out: Replicon EC50 (nM) D168V, Table 9
[16] = read-out: Ki (nM) R155K, Table 8, linear inhibitors
[17] = read-out: Ki R155K, R155K variant
[18] = read-out: Replicon EC50 (nM) D168V, Table 9

SMILES	Ki [1, 11]	Ki [1, 12]	Ki D168A (fold change) [2]	Ki [3, 13]	Ki [3, 14]	EC50 [4]	EC50 [5]	Replicon EC50 (Fold change) A156T [5]	EC50 [6]	Replicon EC50 (Fold change) D168A [6]	EC50 [7]	Replicon EC50 (Fold change) R155K [7]	EC50 [8, 15]	Replicon EC50 (Fold change) D168V ([8]; Table 9)	Ki [9, 16]	Ki [9, 17]	Ki R155K (fold change) [10]	EC50 [8, 18]
C=C[C@@H]1C[C@]1(NC(=O)[C@@H]1C[C@@H](Oc2nc3cc(OC)ccc3nc2CC)CN1C(=O)[C@@H](NC(=O)OC(C)(C)C)C(C)(C)C)C(=O)NS(=O)(=O)C1CC1 [Compound 3, tert-Butyl ((S)-1-((2S,4R)-2-(((1R,2S)-1-((cyclopropylsulfonyl)carbamoyl)-2-vinylcyclopropyl)carbamoyl)-4-((3-ethyl-7-methoxyquinoxalin-2-yl)oxy)pyrrolidin-1-yl)-3,3-dimethyl-1-oxobutan-2-yl)carbamate]	642 ± 101 nM	642 ± 101 nM	34	19 nM	19 ± 2.7 nM	24 nM	73 nM	(3.0) fold	> 500 nM	(>21) fold	50 nM	(2.1) fold	> 500 nM	(>21) fold	17 ± 2.3 nM	17 ± 2.3 nM	0.9	–
C=C[C@@H]1C[C@]1(NC(=O)[C@@H]1C[C@@H](Oc2nc3cc(OC)ccc3nc2Cl)CN1C(=O)[C@@H](NC(=O)OC(C)(C)C)C(C)(C)C)C(=O)NS(=O)(=O)C1CC1 [Compound 9d, tert-Butyl ((S)-1-((2S,4R)-4-((3-chloro-7-methoxyquinoxalin-2-yl)oxy)-2-(((1R,2S)-1-((cyclopropylsulfonyl)carbamoyl)-2-vinylcyclopropyl)carbamoyl)pyrrolidin-1-yl)-3,3-dimethyl-1-oxobutan-2-yl)carbamate]	128 ± 16 nM	128 ± 16 nM	16	7.8 ± 1.1 nM	7.8 ± 1.1 nM	6.6 nM	107 nM	(16) fold	–	(5.8) fold	10 nM	(1.5) fold	12 to 38 nM	(1.8) fold	2.2 ± 0.4 nM	2.2 ± 0.4 nM	0.3	12 nM
C=C[C@@H]1C[C@]1(NC(=O)[C@@H]1C[C@@H](Oc2nc3cc(OC)ccc3nc2Cl)CN1C(=O)[C@@H](NC(=O)OC(C)(C)C)C(C)(C)C)C(=O)NS(=O)(=O)C1(C)CC1 [Compound 10d, tert-Butyl ((S)-1-((2S4R)-4-((3-chloro-7-methoxyquinoxalin-2-yl)oxy)-2-(((1R,2SD)-1-(((1-methylcyclopropyl)sulfonyl)carbamoyl)-1-vinylcyclopropyl)carbamoyl)pyrrolidin-1-yl)-3,3-dimethyl-1-oxobutan-2-yl)carbamate]	119 ± 16 nM	119 ± 16 nM	31	6.1 ± 1.1 nM	6.1 ± 1.1 nM	6.3 nM	100 nM	(16) fold	–	(4.8) fold	10 nM	(1.6) fold	12 to 38 nM	(1.9) fold	3.8 ± 0.6 nM	3.8 ± 0.6 nM	0.7	12 nM
C=C[C@@H]1C[C@]1(NC(=O)[C@@H]1C[C@@H](Oc2nc3cc(OC)ccc3nc2C)CN1C(=O)[C@@H](NC(=O)OC1CCCC1)C(C)(C)C)C(=O)NS(=O)(=O)C1CC1 [Compound 11b, Cyclopentyl ((S)-1-((2S,4R)-2-(((1R,2S)-1-((cyclopropylsulfonyl)carbamoyl)-2-vinylcyclopropyl)carbamoyl)-4-((7-methoxy-3-methylquinoxalin-2-yl)oxy)pyrrolidin-1-yl)-3,3-dimethyl-1-oxobutan-2-yl)carbamate]	144 ± 23 nM	144 ± 23 nM	16	9.2 ± 0.9 nM	9.2 ± 0.9 nM	10 nM	164 nM	(16) fold	101 nM	(10) fold	48 nM	(4.8) fold	150 nM	(15) fold	9.6 ± 0.9 nM	9.6 ± 0.9 nM	1.0	–
C=C[C@@H]1C[C@]1(NC(=O)[C@@H]1C[C@@H](Oc2nc3cc(OC)ccc3nc2Cl)CN1C(=O)[C@@H](NC(=O)OC1CCCC1)C(C)(C)C)C(=O)NS(=O)(=O)C1CC1 [Compound 11d, Cyclopentyl ((S)-1-((2S,4R)-4-((3-chloro-7-methoxyquinoxalin-2-yl)oxy)-2-(((1R,2S)-1-((cyclopropylsulfonyl)carbamoyl)-2-vinylcyclopropyl)carbamoyl)pyrrolidin-1-yl)-3,3-dimethyl-1-oxobutan-2-yl)carbamate]	99 ± 10 nM	99 ± 10 nM	26	3.8 nM	3.8 ± 0.6 nM	7.4 nM	292 nM	(40) fold	50 nM	(6.8) fold	40 nM	(5.4) fold	54 nM	(7.3) fold	4.1 ± 0.5 nM	4.1 ± 0.5 nM	1.1	–
C=C[C@@H]1C[C@]1(NC(=O)[C@@H]1C[C@@H](Oc2nc3cc(OC)ccc3nc2C(C)C)CN1C(=O)[C@@H](NC(=O)OC1CCCC1)C(C)(C)C)C(=O)NS(=O)(=O)C1(C)CC1 [Compound 12c, Cyclopentyl ((S)-1-((2S,4R)-4-((3-isopropyl-7-methoxyquinoxalin-2-yl)oxy)-2-(((1R,2S)-1-(((1-methylcyclopropyl)sulfonyl)carbamoyl)-2-vinylcyclopropyl)carbamoyl)pyrrolidin-1-yl)-3,3-dimethyl-1-oxobutan-2-yl)carbamate]	1000 ± 80 nM	1000 ± 80 nM	48	21 ± 2.6 nM	21 ± 2.6 nM	–	–	–	–	–	–	–	–	–	43 ± 11 nM	43 ± 11 nM	2.0	–
C=C[C@@H]1C[C@]1(NC(=O)[C@@H]1C[C@@H](Oc2nc3cc(OC)ccc3nc2Cl)CN1C(=O)[C@@H](NC(=O)OC1CCCC1)C(C)(C)C)C(=O)NS(=O)(=O)C1(C)CC1 [Compound 12d, Cyclopentyl ((S)-1-((2S,4R)-4-((3-chloro-7-methoxyquinoxalin-2-yl)oxy)-2-(((1R,2S)-1-(((1-methylcyclopropyl)sulfonyl)carbamoyl)-2-vinylcyclopropyl)carbamoyl)pyrrolidin-1-yl)-3,3-dimethyl-1-oxobutan-2-yl)carbamate]	51 ± 6 nM	51 ± 6 nM	13	3.9 nM	3.9 ± 0.7 nM	3.1 nM	163 nM	(53) fold	–	(8.1) fold	27 nM	(8.7) fold	12 to 38 nM	(7.4) fold	5.2 ± 0.8 nM	5.2 ± 0.8 nM	1.3	23 nM
C=C[C@@H]1C[C@]1(NC(=O)[C@@H]1C[C@@H](Oc2nc3cc(OC)ccc3nc2C(F)(F)F)CN1C(=O)[C@@H](NC(=O)OC1CCCC1)C(C)(C)C)C(=O)NS(=O)(=O)C1(C)CC1 [Compound 12e, Cyclopentyl ((S)-1-((2S,4R)-4-((7-methoxy-3-(trifluoromethyl)quinoxalin-2-yl)oxy)-2-(((1R,2S)-1-(((1-methylcyclopropyl)sulfonyl)carbamoyl)-2-vinylcyclopropyl)carbamoyl)pyrrolidin-1-yl)-3,3-dimethyl-1-oxobutan-2-yl)carbamate]	516 ± 61 nM	516 ± 61 nM	24	22 ± 3.4 nM	22 ± 3.4 nM	–	–	–	–	–	–	–	–	–	22 ± 6.9 nM	22 ± 6.9 nM	1.0	–
